The values below come from PMC5487681, “Identification of Antifungal H^+-ATPase Inhibitors with Effect on Plasma Membrane Potential” (Antimicrobial Agents and Chemotherapy, 2017).

Residues, ends and D or L forms follow the SMILES beside them.

One assay concerns the target S. cerevisiae Pma1 (Saccharomyces cerevisiae, UniProt P05030). The following applies: read-out: IC50 Pma1, ATP hydrolysis assay; cited from earlier work.
The test system of the next assay is S. cerevisiae cells. Description: Membrane potential and integrity assay, DiBAC4(3)/PI image cytometry. The format is cell-based, Saccharomyces cerevisiae. The note with it: for PI signal (membrane integrity), in words: compound 14 after 5 min, BM2 within 5 min; for PI signal (membrane integrity), in words / DiBAC4(3) signal (membrane depolarization), in words: compound 17 15 µM, 30 min (Fig. S1); for DiBAC4(3) signal (membrane depolarization), in words: compound 14 after 5 min of exposure. On the procedure: Cells were transferred from frozen stocks to 3 ml of YPD medium and grown overnight at 30°C and 150 rpm. The culture was diluted to an OD600 of 0.15 and grown for 3 to 4 h at 30°C and 150 rpm to an OD600 of 0.5 to 0.7. The cells were pelleted by centrifugation at 2,000 × g for 2 min and washed in buffer A (100 mM MOPS and 1 mM KCl adjusted to pH 7.0 with Trizma base). The washing procedure was repeated, and the cells were resuspended in buffer A to an OD600 of 0.2. Fifty microliters of buffer A containing 3.3 μg/ml propidium iodide (PI; catalog number P1304MP; Thermo Fisher Scientific) and 1 μg/ml DiBAC4(3) (catalog number D8189; Sigma-Aldrich) was mixed with 50 μl the S. cerevisiae cell suspension in buffer A and transferred to a 96-well plate with 1 μl of inhibitor in DMSO, and the components were mixed.
Approximately 30 μl sample was transferred to an A2 glass slide (ChemoMetec, Allerod, Denmark), and the slide was incubated at 30°C before the cells were counted on a NucleoCounter NC-3000 cytometer (ChemoMetec). Five thousand cells were counted per experiment with an exposure time of 1,000 ms. A dark field was used as the masking channel to select the yeast cells. The DiBAC4(3) channel (excitation, 530 nm; emission, 675/75 nm) and the PI channel (excitation, 630 nm; emission, 740/60 nm) were used to measure the membrane potential and membrane integrity, respectively. To account for the fluorescent spillover from the PI channel to the DiBAC4(3) channel, 15% compensation was applied. In all experiments, 1.9% compensation was used to compensate for the DiBAC4(3)-to-PI spillover. The results were analyzed using NucleoView software (ChemoMetec). Only cells with a pixel size of 10 to 40 were included in the analysis, thus avoiding analysis of noncell artifacts. Carbonyl cyanide m-chlorophenylhydrazone (CCCP) was used as a positive control for decreased membrane potential, and lysis buffer was used to validate lost membrane integrity.

The next assay has as its system C. albicans. The following applies: read-out: IC50 for C. albicans, previously reported value; cited from earlier work.
Where [1] appears, read: 30 min of exposure, 15 μM (Fig. 4C).

S. cerevisiae Pma1, sequence (P05030 whole entry): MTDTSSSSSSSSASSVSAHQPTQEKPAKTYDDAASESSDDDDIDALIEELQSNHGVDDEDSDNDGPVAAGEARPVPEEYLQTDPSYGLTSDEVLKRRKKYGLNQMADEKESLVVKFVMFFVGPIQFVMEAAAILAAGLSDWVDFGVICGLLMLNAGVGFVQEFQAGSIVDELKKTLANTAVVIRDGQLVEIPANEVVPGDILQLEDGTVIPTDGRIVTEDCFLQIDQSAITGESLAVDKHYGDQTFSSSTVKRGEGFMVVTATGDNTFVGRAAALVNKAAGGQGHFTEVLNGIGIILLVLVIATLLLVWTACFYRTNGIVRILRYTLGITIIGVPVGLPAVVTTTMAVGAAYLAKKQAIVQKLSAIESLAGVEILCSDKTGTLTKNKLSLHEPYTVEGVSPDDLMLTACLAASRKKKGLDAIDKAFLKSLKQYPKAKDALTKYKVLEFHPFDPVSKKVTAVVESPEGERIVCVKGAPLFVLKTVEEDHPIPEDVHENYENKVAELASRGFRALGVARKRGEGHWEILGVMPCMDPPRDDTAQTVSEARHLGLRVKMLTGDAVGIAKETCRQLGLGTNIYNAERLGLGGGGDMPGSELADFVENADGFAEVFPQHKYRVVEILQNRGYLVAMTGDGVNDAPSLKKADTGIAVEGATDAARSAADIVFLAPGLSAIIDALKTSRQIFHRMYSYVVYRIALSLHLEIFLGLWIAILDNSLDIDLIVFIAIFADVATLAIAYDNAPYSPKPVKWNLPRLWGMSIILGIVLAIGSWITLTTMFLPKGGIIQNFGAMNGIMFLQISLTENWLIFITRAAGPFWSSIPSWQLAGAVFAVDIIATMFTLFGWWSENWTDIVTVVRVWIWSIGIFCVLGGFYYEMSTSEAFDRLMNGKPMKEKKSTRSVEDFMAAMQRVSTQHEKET

What is called IC50 is the concentration that inhibits the measured activity by half. `N=C(N)NCCC[C@@H](N)C(=O)N[C@H](CCCNC(=N)N)C(=O)N[C@H](CCCNC(=N)N)C(=O)N[C@H](Cc1ccccc1)C(=O)N[C@H](Cc1c[nH]c2ccccc12)C(=O)N[C@H](Cc1c[nH]c2ccccc12)C(=O)N[C@H](Cc1ccccc1)C(=O)N[C@H](CCCNC(=N)N)C(=O)N[C@H](CCCNC(=N)N)C(=O)N[C@H](CCCNC(=N)N)C(N)=O` [BM2, reference compound] (HELM PEPTIDE1{[dR].[dR].[dR].[dF].[dW].[dW].[dF].[dR].[dR].[dR].[am]}$$$$V2.0): the IC50 at S. cerevisiae Pma1 was 0.5 µM.
On to `CCCCc1nc2sc3c(NCCCN(C)C)ncnc3c2c2c1CCCC2` [Compound 14], for which, in the assay on S. cerevisiae cells (setting [1]), the “Cells DiBAC4(3) positive and PI negative” value was found to be 44%; the “Cells PI positive but DiBAC4(3) negative” value was 0.7%; the “Cells both PI and DiBAC4(3) negative” value is 16%; the “Cells both PI and DiBAC4(3) positive” value turned out to be 39%. In the assay on S. cerevisiae cells, the “PI signal (membrane integrity), in words” value is listed as “minimal increase” and the “DiBAC4(3) signal (membrane depolarization), in words” value is “elevated”.
For the compound `CCc1nc2sc3c(NCCCN(C)C)ncnc3c2c2c1CCCC2` [Compound 17], in the assay on S. cerevisiae cells, the “PI signal (membrane integrity), in words” value is listed as “not significantly increased” and the “DiBAC4(3) signal (membrane depolarization), in words” value is “did not increase”.
Turning to `O=c1c2ccccc2[se]n1-c1ccccc1` [Ebselen, reference compound], in the assay on C. albicans, the 50% inhibitory concentration (IC50) was 14 µM.
